# System: P. falciparum 3D7 growth, pLDH absorbance
# Assay: blood-stage malaria parasite growth potency – strain 3D7, dose response (AID 2305)
row,SMILES,IC50 [nM]
1,O=C(NCCCCCN1CCC(c2c[nH]c3ccccc23)CC1)Nc1ccc(I)c(Cl)c1,970
2,COc1cc2ccccc2c(OC)c1CNCCCCCCNCc1c(OC)cc2ccccc2c1OC,990
3,COc1c(C2CCN(CCCCNC(=O)c3ccc(-c4ccc(C#N)cc4)cc3)CC2)ccc2c1C(C)(C)CCC2(C)C,410
4,Cc1ccc(NC(=O)NC2CCN(c3ccnc4cc(Cl)ccc34)CC2)cc1,320
5,Cc1cc(N[C@@H](CC(C)C)C(=O)NC2CCCC2)nc(NCCc2ccc(F)cc2)n1,790
6,COc1ccc(-c2cccc(NC(=O)c3ccc(C#N)cc3)c2)cc1CNC(C)C,810
7,CN(C)CCOc1ccc(NC(=O)Nc2ccnc3c(Br)cccc23)cc1Cl,840
8,COc1cc2c(cc1OC)CN(CCCCc1ccc(NC(=O)c3cc(Cl)cc(Cl)c3)cc1)CC2,1200
9,CC1(C)N=C(N)N=C(N)N1c1ccc([N+](=O)[O-])cc1,230
10,COc1cc2nc(NCCCO)nc(Nc3ccc(Oc4ccccc4)cc3)c2cc1OC,140
11,CO/C(=C\C=C\c1cc2cc(Cl)c(Cl)cc2[nH]1)C(=O)NC1CCN(CCNc2ccccc2)CC1,260
12,COc1ccc2ccccc2c1CCCCN1CCN(CC(c2ccc(F)cc2)N2CCN(C3CCCC3)CC2)CC1 (stereo unspecified),770
13,N#Cc1ccc2c(c1)CN(C1CCC(NC(=O)c3cc(-c4ccc(Cl)cc4)cs3)CC1)CCC2 (stereo unspecified),960
14,CCCCCCCC/C=C\CCCCCCCC(=O)NCc1ccc(O)c(OC)c1,400
15,C[C@H](Cc1ccc(OCCCCCCOc2ccc(C[C@@H](C)NC[C@H](O)c3cccc(Cl)c3)cc2)cc1)NC[C@H](O)c1cccc(Cl)c1,300
16,O=C(NCCCN1CCN(c2cccc(Cl)c2)CC1)c1ccc(-c2nc3cc(Cl)c(Cl)cc3[nH]2)cc1,700
17,CCOC(C(=O)OCC1CCCN(C)C1)(c1ccccc1)c1ccccc1 (stereo unspecified),870
18,COc1cc(F)c2ncc(Cl)c(CCN3CCC(NCc4ccc5c(n4)NC(=O)CS5)CC3)c2c1,480
19,O=C(Nc1ccc(OC2CCN(Cc3ccsc3)C2)c(Cl)c1)c1ccc2ncccc2c1 (stereo unspecified),970
20,CCCc1ccc(NC(=O)c2cccc(CN3CCCN(Cc4cccc(O)c4)CC3)c2)cc1,750
21,CCCc1ccc(-c2csc(NC(=O)c3ccc([N+](=O)[O-])o3)n2)cc1,1210
22,O=C(/C=C/c1ccc(Cl)cc1)NCCCCCN1CCN(C(=O)C=Cc2ccc(Cl)c(Cl)c2)CC1,990
23,CCCCNCc1ccc(-c2nc(CN(CCCn3ccnc3)C(=O)Nc3ccc(CC)cc3)cs2)cc1,830
24,CCOC(=O)c1ccc(-c2cnoc2-c2cc(CC)c(OC)cc2O)o1,280
25,C=CCOc1ccc(Cc2cnc(N)nc2N)cc1CCC,1020
26,COc1cccc(C(=O)C2CC2CN2CC=C(c3c(C)[nH]c4ccccc34)CC2)c1 (stereo unspecified),710

row,SMILES,IC50 [nM]
1,COc1ccc(CNc2ccnc3cc(OC)ccc23)cc1,770
2,CNCc1ccc(-c2cccc(CNCc3ccc(-c4ccccc4)cc3)c2)c(C(=O)OC)c1,980
3,CC(C)c1sc(N2CCN(C)CC2)nc1C(=O)NCCc1ccc(Br)cc1,1130
4,CCCc1cc(=O)[nH]c(-n2nc(C)cc2NC(=O)C(CC)c2ccccc2)n1 (stereo unspecified),940
5,Cc1nc(N)nc(N)c1-c1ccc(Br)cc1,230
6,S=C(NN=Cc1ccccn1)Nc1ccc(Cl)c(Cl)c1,770
7,Oc1ccccc1Nc1nc(NCc2ccco2)c2ccccc2n1,640
8,c1ccc2cc(CNCCCN3CCN(CCCNCc4ccc5ccccc5c4)CC3)ccc2c1,550
9,Cc1cc(NC(=O)Nc2cccc(N(C)C)c2)c2ccccc2n1,200
10,O=C(N1CCN(c2cccc(C(F)(F)F)c2)CC1)C(Cl)(Cl)Cl,890
11,CC[C@H]1CN2CC[C@H]1C[C@H]2[C@H](O)c1cc(-c2ccccc2C)nc2ccc(OC)cc12,200
12,CCOC(=O)c1c(C)n(-c2ccccc2)c2ccc(O)cc12,470
13,CC1CCCCC1N(C)C1CCN(CCCNC(=O)C=Cc2ccccc2Cl)CC1 (stereo unspecified),670
14,NCCNC(=O)c1ccc(-c2cnc3[nH]cc(-c4ccc(C(N)=O)cc4)c3c2)cc1,170
15,COc1ccc(CNCc2cccc(-c3ccc(-c4nc5ccccc5[nH]4)cc3)c2)cc1,310
16,O=C(/C=C/c1cccc2ccccc12)NCCCCCN1CCC(c2c[nH]c3ccccc23)CC1,1140
17,CC(C)CCN(Cc1cncn1Cc1ccccc1F)C(=O)c1cncc(-c2ccccc2)c1,790
18,Cc1cccc2[nH]c(-c3cccc(-c4ccc(NC(=O)Nc5cccc(C#N)c5)cc4)c3)nc12,190
19,Cc1cc(NC(=O)NCCN2CCC(NS(=O)(=O)c3ccc(Br)cc3)C2)c2ccccc2n1 (stereo unspecified),600
20,Cc1ccc2c(Cl)c(C(=O)N3CC(C)OC(C)C3)sc2c1 (stereo unspecified),180
21,COC(=O)/C=C/c1ccc(CCC(C)NCC(O)c2cccc(Cl)c2)cc1 (stereo unspecified),940
22,N#Cc1ccc2c(c1)CCN(CCC1CCC(NC(=O)/C=C/c3cccc4cc[nH]c34)CC1)CC2 (stereo unspecified),1090
23,Cc1cnc(Nc2cccc(CCN3CCOCC3)c2)nc1NC(C)C,740
24,NC1CCN(CCNCc2cccc(-c3ccc(-c4nc5ccc(F)cc5[nH]4)cc3)c2)C1 (stereo unspecified),730
25,O=C(O)CCCN1CCCC(=C(c2ccccc2)c2ccccc2)C1,1190
26,Cc1ccc(N2C(N)=NC(N)=NC2(C)C)cc1,40

row,SMILES,IC50 [nM]
1,NC(N)=NC(=O)Nc1ccc(Cl)c([N+](=O)[O-])c1,760
2,O=c1cc(NCCCNCc2ccccc2-c2ccccc2)[nH]c2ccccc12,980
3,COc1ccc2ncc(F)c(CCN3CCC(NCc4cc(F)c5c(c4)OCCO5)CC3)c2n1,350
4,O=S(=O)(c1ccc(OCc2ccc(Cl)cc2)cc1)c1cc2c(c(-c3ccc(F)cc3)c1)CCN(CC1CC1)CC2,1120
5,CCN(CCCN1CCCCC1)c1nccc(Nc2ccc(Cl)cc2)n1,1190
6,CN1CCC(NCc2ccc(-c3cccc(S(=O)(=O)NCc4ccccc4)c3)cc2)CC1,320
7,Cc1ccc(CCC(C)NCC(O)c2cccc(Cl)c2)cc1 (stereo unspecified),800
8,Cc1cc(NN=Cc2ccccc2F)c2ccccc2n1,920
9,Cc1cc(O)cc2c(C3CCN(CC4CCN(C(=O)/C=C/c5ccc(Cl)c(Cl)c5)CC4)CC3)c[nH]c12,1090
10,CS(=O)(=O)c1ccc(CCNCc2ccc(-c3ccc(CNC4CCN(Cc5ccccc5)CC4)cc3)nc2)cc1,250
11,CC(C)CCN1CCCN(Cc2cccc(NC(=O)c3ccc(-c4ccccc4)cc3)c2)CC1,890
12,O=C1NC(=S)NC1=CC=Cc1ccc([N+](=O)[O-])o1,1070
13,CCOc1c(CNCCCCCCNCc2ccc3ccccc3c2OCC)ccc2ccccc12,760
14,Cc1ccc2nc(-c3cc(-c4cccc(CCN5CCOCC5)c4)cnc3N)[nH]c2c1,170
15,O=C(Nc1cccc(CN2CCCN(CC3CC3)CC2)c1)c1ccc(Cl)c(Cl)c1,1030
16,COc1ccc2nccc([C@@H](O)CN3CCC(NCc4nc5ccc(F)cc5[nH]4)CC3)c2c1,730
17,Cc1nc2c(=O)sc3ccccc3c2n1Cc1ccccc1,880
18,O=[N+]([O-])c1cc(C(c2ccc(O)c([N+](=O)[O-])c2)C(Cl)(Cl)Cl)ccc1O,730
19,CN(C)c1ccc(OCCCCCCOc2ccccc2)cc1,500
20,CSC1=NC(=Nc2ccccc2C)C2(CCC(C(C)(C)C)CC2)N1c1ccccc1Cl (stereo unspecified),800
21,CC1=C(C(=O)Nc2cc3cn[nH]c3cc2F)C(c2ccc(Cl)c(NS(C)(=O)=O)c2)CC(=O)N1 (stereo unspecified),480
22,Cc1nc2ccccc2n1C1C[C@H]2CC[C@@H](C1)N2CCCC1(c2ccccc2)CCN(C(=O)OCc2ccccc2)CC1 (stereo partly specified),1000
23,C(=Cc1ccccc1)C=NNc1ccnc2ccccc12,730
24,Cc1oc(-c2cccc(Oc3ccccc3)c2)nc1CN(Cc1cnn(C)c1)C(C)C,1090
25,CC(Nc1ccc2c(c1)CCC2)C(=O)Nc1cc(C(F)(F)F)ccc1N1CCOCC1 (stereo unspecified),90
26,CCN(CCNS(C)(=O)=O)c1ccc(N)c(C)c1,880

row,SMILES,IC50 [nM]
1,COc1cc(CCNc2nc(NCc3ccccc3-c3ccccc3)nc(N3CCC(N)CC3)n2)ccc1O,820
2,Cc1cnc(NCC2CCCCC2)nc1NCC(=O)Nc1ccccc1,710
3,Cc1noc(C)c1-c1cccc(C(=O)NC2CCN(CCNC(=O)C(c3ccccc3)c3ccccc3)CC2)c1,1220
4,Cc1cccc2[nH]c(-c3ccc(-c4ccc(NC(=O)C(C)CN(C)C)cc4)cc3)nc12 (stereo unspecified),680
5,Clc1ncnc2scc(-c3ccc(Br)cc3)c12,890
6,O=C(Nc1cccc(-c2cccc(-c3nc4ccc(C(F)(F)F)cc4[nH]3)c2)c1)Nc1ccc(F)c(F)c1F,120
7,O=C(Nc1cccc(Cl)c1Cl)N[C@H]1CCN(CCCCCNC(=O)[C@@H]2C[C@H]2c2ccc(Cl)c(Cl)c2)C1,1280
8,Cc1nc(N)nc(N)c1-c1ccc(Br)c(Br)c1,50
9,COc1ccc(-c2csc(N(CCCN(C)C)C(=O)c3cc4c(C)nn(-c5ccccc5)c4s3)n2)cc1,620
10,CN1CCCC(CN2CCN(Cc3ccc(-c4ccc(-c5nc6ccccc6[nH]5)cc4)cc3)CC2)C1 (stereo unspecified),140
11,Nc1nccc2ccc(Oc3ccncc3)cc12,480
12,c1csc(-c2ccc3c(c2)CC(NCc2c[nH]c4cnccc24)C3)c1 (stereo unspecified),740
13,CCOC(=O)C1=C(C)NC2=C(C(=O)CC(C)(C)C2)C1c1ccc(Br)cc1 (stereo unspecified),1160
14,COC(=O)c1cccc(CNCc2ccc(-c3cccc(-c4nc5ccc(C(F)(F)F)cc5[nH]4)c3)cc2)c1,160
15,CC1(C)N=C(NC(=O)Nc2ccc([N+](=O)[O-])cc2)N=C(N)N1OCc1cccc2ccccc12,60
16,Cc1cc(C2CCN(CCCCNC(=O)c3ccc(NC(=O)c4ccc(Cl)cc4)cc3)CC2)c(C)cc1OCc1ccccn1,800
17,CCc1ccc(CN2CCC(CNC(=O)c3cc(-c4cccc(C(F)(F)F)c4)cs3)C2)cc1 (stereo unspecified),750
18,CCC/C=C/c1c(CNCCCNc2cc(=O)c3ccccc3[nH]2)sc(CC)c1Br,890
19,O=C1COC2(CN1CC1CCN(Cc3ccc(O)c(Cl)c3)C1)c1ccccc1-c1ccccc12 (stereo unspecified),1060
20,COc1ccc(-c2cccc(NC(=O)c3cccc(C#N)c3)c2)cc1CN1CCNCC1,730
21,O=C(Nc1ccc(C(=O)OCC2CCCCC2)cc1)N[C@@H](Cc1ccc(O)cc1)C(=O)NC1CCN(Cc2ccc(O)cc2)C1 (stereo partly specified),870
22,CC(=O)Nc1ncc(C(=O)Nc2ccc(-c3cccc(-c4nc5ccc(C(F)(F)F)cc5[nH]4)c3)cc2)s1,260
23,COc1ccc2[nH]cc(C3CCN(CCCCCNC(=O)c4ccc(-c5ccccc5)cc4)CC3)c2c1,800

# Reference: PubChem BioAssay AID2305 (GlaxoSmithKline (GSK), 2010)
